{"source": "PubChem BioAssay (NCI)", "assay_in_all_cases": "NCI-60 cell line screen, 48 h", "key": {"NCI-H226 lung": {"tested_on": "NCI-H226 lung"}, "NCI-H522 lung": {"tested_on": "NCI-H522 lung"}, "NCI/ADR-RES ovarian": {"tested_on": "NCI/ADR-RES ovarian"}, "RXF 393 renal": {"tested_on": "RXF 393 renal"}}, "note": "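Where inhibition never reached the appropriate level, the endpoint shown equals the highest concentration tested. Otherwise, values were interpolated linearly from a five-concentration, 48-hour dose response in 96-well plates. At the GI50, growth is halved. TGI denotes the concentration required for complete inhibition of growth.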"}
{"smiles": "CCCC1CCC(O)(C(C)(O)C(=O)NC2C(=O)N3NCCCC3C(=O)N(O)C(C)C(=O)N3NCCCC3C(=O)N3NCC(O)CC3C(=O)NC(C)C(=O)OC2C(C)C)OC1CC", "note": "(configuration not stated)", "values": [{"measurement": "GI50", "setting": "NCI-H226 lung", "result": "> 25", "unit": "µM"}, {"measurement": "TGI", "setting": "NCI-H226 lung", "result": "> 25", "unit": "µM"}, {"measurement": "GI50", "setting": "NCI-H522 lung", "result": "> 25", "unit": "µM"}, {"measurement": "TGI", "setting": "NCI-H522 lung", "result": "> 25", "unit": "µM"}, {"measurement": "TGI", "setting": "NCI/ADR-RES ovarian", "result": "> 5.53", "unit": "µM"}, {"measurement": "GI50", "setting": "RXF 393 renal", "result": "> 25", "unit": "µM"}, {"measurement": "TGI", "setting": "RXF 393 renal", "result": "> 25", "unit": "µM"}]}
